Measurements from the supplement of paper PMC10307832.

Key:
Assay in all cases: relative viability (nuclei count vs DMSO), 5 days (fraction); higher = more cells survive
Olaparib + Alpelisib = compound: O=C(c1cc(Cc2n[nH]c(=O)c3ccccc23)ccc1F)N1CCN(C(=O)C2CC2)CC1 [Olaparib] + Cc1nc(NC(=O)N2CCC[C@H]2C(N)=O)sc1-c1ccnc(C(C)(C)C(F)(F)F)c1 [Alpelisib] (partner 2 µM)
How it was run: (§1)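 One day after seeding in 1536-well plates, lung cancer cell lines were dosed by pin tool. Dosing was either single-drug or a fixed anchor-drug dose plus five library-drug doses (not always all listed) in √10 steps. After 5 days, nuclei were stained in one fix-and-stain step and counted on 4× images, and relative viability is the nuclei count of treated wells over that of vehicle wells, given as the median of duplicate plates.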

Carfilzomib + Foretinib = compound: CC(C)C[C@H](NC(=O)[C@H](CCc1ccccc1)NC(=O)CN1CCOCC1)C(=O)N[C@@H](Cc1ccccc1)C(=O)N[C@@H](CC(C)C)C(=O)[C@@]1(C)CO1 [Carfilzomib] + COc1cc2c(Oc3ccc(NC(=O)C4(C(=O)Nc5ccc(F)cc5)CC4)cc3F)ccnc2cc1OCCCN1CCOCC1 [Foretinib] (partner 0.25 µM)
How it was run: as §1

Crizotinib + Dasatinib = compound: C[C@@H](Oc1cc(-c2cnn(C3CCNCC3)c2)cnc1N)c1c(Cl)ccc(F)c1Cl [Crizotinib] + Cc1nc(Nc2ncc(C(=O)Nc3c(C)cccc3Cl)s2)cc(N2CCN(CCO)CC2)n1 [Dasatinib] (partner 0.075 µM)
How it was run: as §1

Olaparib + Crizotinib = compound: O=C(c1cc(Cc2n[nH]c(=O)c3ccccc23)ccc1F)N1CCN(C(=O)C2CC2)CC1 [Olaparib] + C[C@@H](Oc1cc(-c2cnn(C3CCNCC3)c2)cnc1N)c1c(Cl)ccc(F)c1Cl [Crizotinib] (partner 1 µM)
How it was run: as §1

Cell Line	relative viability (Olaparib + Alpelisib; first compound 0.08 µM)	relative viability (Olaparib + Alpelisib; first compound 0.253 µM)	relative viability (Olaparib + Alpelisib; first compound 2.53 µM)	relative viability (Olaparib + Alpelisib; first compound 8 µM)	relative viability (Carfilzomib + Foretinib; first compound 0.001 µM)	relative viability (Carfilzomib + Foretinib; first compound 0.003162 µM)	relative viability (Carfilzomib + Foretinib; first compound 0.01 µM)	relative viability (Carfilzomib + Foretinib; first compound 0.03162 µM)	relative viability (Carfilzomib + Foretinib; first compound 0.1 µM)	relative viability (Crizotinib + Dasatinib; first compound 0.01 µM)	relative viability (Crizotinib + Dasatinib; first compound 0.03162 µM)	relative viability (Crizotinib + Dasatinib; first compound 0.1 µM)	relative viability (Crizotinib + Dasatinib; first compound 0.3162 µM)	relative viability (Crizotinib + Dasatinib; first compound 1 µM)	relative viability (Olaparib + Crizotinib; first compound 0.08 µM)	relative viability (Olaparib + Crizotinib; first compound 0.253 µM)	relative viability (Olaparib + Crizotinib; first compound 2.53 µM)	relative viability (Olaparib + Crizotinib; first compound 8 µM)
NCI-H322M	0.893	0.789	0.911	0.709	0.981	1.01	0.999	0.943	0.359	0.23	0.251	0.232	0.262	0.263	1.03	0.803	0.994	0.902
NCI-H358	0.862	0.808	0.868	0.773	0.688	1.01	0.63	0.0762	0.0649	0.137	0.163	0.147	0.151	0.156	0.606	0.541	0.651	0.518
NCI-H441	–	0.541	0.568	0.487	0.878	0.977	0.61	0.199	0.349	0.531	0.524	0.497	–	0.51	0.677	0.634	0.733	0.719
NCI-H460	0.62	0.38	0.238	0.173	0.97	1.05	0.988	0.75	0.0297	0.358	0.521	0.478	0.424	0.479	0.875	0.744	0.502	0.17
NCI-H520	1.05	0.843	0.814	0.529	0.781	0.999	0.695	0.17	0.203	0.19	0.192	0.2	0.271	0.155	0.739	0.695	0.781	0.477
NCI-H596	0.532	0.452	0.551	0.41	0.813	0.84	0.812	0.195	0.148	0.634	0.594	0.677	0.658	0.722	0.736	0.866	1.02	0.833
NCI-H647	1.41	1.05	1.29	0.954	1.19	1.33	1.26	0.0352	0.0362	0.148	0.172	0.131	0.191	0.17	1.23	0.914	0.923	0.675
NCI-H650	1.33	1.17	1.04	0.84	–	1.27	1.03	0.71	0.174	0.472	0.434	0.512	0.388	0.406	0.899	0.713	0.623	0.615
NCI-H661	0.87	0.511	0.618	0.455	1.05	1.16	1.07	1.06	0.377	0.811	–	0.899	0.809	0.98	1.06	0.969	0.944	0.849
NCI-H727	0.607	0.527	0.597	0.332	0.758	0.891	0.996	0.617	0.397	–	0.398	0.348	–	0.341	0.934	0.737	0.671	0.48
NCI-H838	1.09	0.933	0.978	0.944	1.06	1.12	1.15	0.974	0.131	0.208	0.303	0.313	0.248	0.261	0.882	0.774	0.779	0.742
NCI-H1355	0.804	0.716	0.825	0.798	0.995	1.07	1.03	0.714	0.198	0.736	0.823	0.733	0.598	0.65	1.17	1.01	1.02	0.923
NCI-H1437	0.987	0.987	0.929	0.764	1.29	1.4	1.29	1.19	0.284	0.376	0.435	0.403	0.301	0.396	1.07	0.814	0.903	0.618
NCI-H1563	1.04	0.952	0.929	0.973	0.927	1.08	0.968	0.828	0.517	0.462	0.443	0.453	0.444	0.461	0.867	0.813	0.896	0.826
NCI-H1651	0.927	0.869	0.714	0.356	0.906	0.762	0.71	0.112	0.0981	0.374	0.389	0.456	0.403	0.314	0.882	0.782	0.669	0.439
NCI-H1666	1.01	0.945	0.844	0.676	0.988	0.979	1.07	0.928	0.45	0.808	0.797	0.741	0.77	0.863	1.09	0.777	0.685	0.602
NCI-H1734	0.669	0.612	0.623	0.519	0.876	1.06	0.954	0.401	0.105	0.49	0.455	0.397	–	0.555	0.691	0.681	0.647	0.553
NCI-H1755	1.05	0.867	0.898	0.841	0.954	0.939	0.954	0.928	0.479	0.407	0.46	0.454	0.273	0.413	0.957	0.824	0.904	0.728

Cell Line	relative viability (Olaparib + Alpelisib; first compound 0.08 µM)	relative viability (Olaparib + Alpelisib; first compound 0.253 µM)	relative viability (Olaparib + Alpelisib; first compound 2.53 µM)	relative viability (Olaparib + Alpelisib; first compound 8 µM)	relative viability (Carfilzomib + Foretinib; first compound 0.001 µM)	relative viability (Carfilzomib + Foretinib; first compound 0.003162 µM)	relative viability (Carfilzomib + Foretinib; first compound 0.01 µM)	relative viability (Carfilzomib + Foretinib; first compound 0.03162 µM)	relative viability (Carfilzomib + Foretinib; first compound 0.1 µM)	relative viability (Crizotinib + Dasatinib; first compound 0.01 µM)	relative viability (Crizotinib + Dasatinib; first compound 0.03162 µM)	relative viability (Crizotinib + Dasatinib; first compound 0.1 µM)	relative viability (Crizotinib + Dasatinib; first compound 0.3162 µM)	relative viability (Crizotinib + Dasatinib; first compound 1 µM)	relative viability (Olaparib + Crizotinib; first compound 0.08 µM)	relative viability (Olaparib + Crizotinib; first compound 0.253 µM)	relative viability (Olaparib + Crizotinib; first compound 2.53 µM)	relative viability (Olaparib + Crizotinib; first compound 8 µM)
NCI-H1915	0.986	0.938	0.767	0.59	1.09	1.09	1.05	1.04	0.203	0.307	0.338	0.315	–	0.317	0.934	0.774	0.552	0.445
NCI-H1944	0.881	0.743	0.699	0.717	0.932	0.955	0.949	0.931	0.337	0.193	0.22	0.207	0.179	0.203	1.06	0.926	0.814	0.676
NCI-H1975	0.764	0.594	0.692	0.612	–	0.859	0.621	0.0974	0.104	0.347	0.381	0.349	0.387	0.43	1.04	0.906	0.945	0.916
NCI-H1993	0.691	0.657	0.746	0.742	0.798	0.865	0.81	0.778	0.444	–	0.483	0.488	0.49	0.511	0.967	0.954	0.987	1.07
NCI-H2009	1.28	1.03	1.09	0.976	1.25	1.26	1.21	0.355	0.0701	0.265	0.296	0.253	0.249	0.275	1.19	0.999	1.06	1.01
NCI-H2023	0.64	0.512	0.58	0.501	0.957	0.896	0.894	0.948	0.0777	0.532	0.537	0.449	0.258	0.389	0.789	0.661	0.658	0.574
NCI-H2085	1.08	0.883	0.92	0.835	0.909	0.925	0.829	0.249	0.226	0.209	0.232	0.228	0.282	0.28	0.911	0.657	0.74	0.77
NCI-H2087	1.21	0.95	1.02	0.706	1.03	1.15	0.693	0.0563	0.0605	0.696	0.861	0.797	–	0.803	1.02	0.738	0.78	0.688
NCI-H2126	0.794	0.743	0.712	0.728	1.2	1.3	1.2	1.12	0.48	0.484	0.646	0.569	0.557	0.545	1.12	0.967	0.957	0.969
NCI-H2170	0.846	0.838	0.849	0.718	1.05	1.02	1.06	1.06	0.397	0.642	0.506	0.566	0.481	0.624	1.23	1.15	1.4	1.11
NCI-H2228	0.746	0.657	0.78	0.534	0.902	0.883	0.633	0.0979	0.096	0.459	0.566	0.575	0.26	0.112	0.603	0.437	0.473	0.362
NCI-H2347	1.11	0.978	0.932	0.783	0.958	0.909	1.43	0.698	0.181	0.305	0.272	0.312	0.244	0.25	0.672	0.657	0.705	0.622
NCI-H2405	1.01	0.816	0.728	0.73	–	1.06	1.07	1.07	0.305	0.244	0.237	0.192	0.217	0.196	0.948	0.83	0.769	0.809
NCI-H3122	0.7	0.638	0.867	0.668	0.948	0.992	0.92	0.781	0.318	0.786	0.799	0.836	0.74	0.735	0.266	0.292	0.266	0.28
PC-3 [JPC-3]	1.01	1.01	1.01	0.989	1.02	1.01	1.05	0.889	0.279	1.07	0.996	1.01	1.02	0.975	1	0.902	1.01	0.928
PC-14	0.988	0.859	0.931	0.792	0.979	0.958	0.996	0.826	0.081	0.286	0.241	0.245	0.201	0.238	0.883	0.824	0.849	0.657
RERF-LC-KJ	0.826	0.806	0.845	0.883	0.873	0.86	0.886	0.794	0.409	0.751	0.817	0.751	0.81	0.691	0.811	0.775	0.911	0.755
